Target: T1, CK1α (Homo sapiens, UniProt P48729+Q96SW2)
T1 construct: expressed in transfected cells
Assay: CK1α ePL degradation assay in MDS-L cells
Assay type: cell-based
Details: MDS-L cells expressing ePL-tagged CK1α; for DC50: concentration giving 50% CK1α degradation vs DMSO control; for Y: lowest measured CK1α level normalized to DMSO control
Outline: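 Degradation efficiency is reported as Y value, the minimum CK1α level (percent of DMSO control) across doses. Readout used InCELL Hunter luminescent detection after MDS-L cell exposure at 37° C for stated times, doses 10 μM down to 0.0005 μM in 3-fold steps.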

T1 sequence (P48729 whole entry): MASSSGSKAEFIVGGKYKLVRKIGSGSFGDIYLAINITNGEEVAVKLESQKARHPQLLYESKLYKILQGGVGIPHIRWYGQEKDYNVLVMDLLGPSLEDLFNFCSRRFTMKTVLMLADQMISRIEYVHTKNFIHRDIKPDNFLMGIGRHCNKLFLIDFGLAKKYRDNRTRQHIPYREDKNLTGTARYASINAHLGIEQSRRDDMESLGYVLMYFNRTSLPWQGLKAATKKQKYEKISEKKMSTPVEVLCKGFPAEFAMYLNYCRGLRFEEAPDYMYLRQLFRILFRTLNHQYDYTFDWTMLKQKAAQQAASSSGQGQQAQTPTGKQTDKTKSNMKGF
T1 sequence (Q96SW2 whole entry): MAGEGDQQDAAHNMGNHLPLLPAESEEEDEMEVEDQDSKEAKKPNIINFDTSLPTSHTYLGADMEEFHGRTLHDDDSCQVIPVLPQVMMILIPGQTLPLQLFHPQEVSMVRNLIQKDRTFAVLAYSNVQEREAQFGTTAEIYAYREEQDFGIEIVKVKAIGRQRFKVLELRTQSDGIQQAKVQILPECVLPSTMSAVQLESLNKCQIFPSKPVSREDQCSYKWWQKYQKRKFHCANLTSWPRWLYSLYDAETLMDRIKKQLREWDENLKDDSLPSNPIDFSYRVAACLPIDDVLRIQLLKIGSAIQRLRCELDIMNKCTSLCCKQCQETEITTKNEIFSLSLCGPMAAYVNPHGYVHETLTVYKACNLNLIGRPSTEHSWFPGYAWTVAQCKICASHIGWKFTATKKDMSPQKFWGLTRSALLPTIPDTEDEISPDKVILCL
T1 sequence (Q16531 whole entry partner): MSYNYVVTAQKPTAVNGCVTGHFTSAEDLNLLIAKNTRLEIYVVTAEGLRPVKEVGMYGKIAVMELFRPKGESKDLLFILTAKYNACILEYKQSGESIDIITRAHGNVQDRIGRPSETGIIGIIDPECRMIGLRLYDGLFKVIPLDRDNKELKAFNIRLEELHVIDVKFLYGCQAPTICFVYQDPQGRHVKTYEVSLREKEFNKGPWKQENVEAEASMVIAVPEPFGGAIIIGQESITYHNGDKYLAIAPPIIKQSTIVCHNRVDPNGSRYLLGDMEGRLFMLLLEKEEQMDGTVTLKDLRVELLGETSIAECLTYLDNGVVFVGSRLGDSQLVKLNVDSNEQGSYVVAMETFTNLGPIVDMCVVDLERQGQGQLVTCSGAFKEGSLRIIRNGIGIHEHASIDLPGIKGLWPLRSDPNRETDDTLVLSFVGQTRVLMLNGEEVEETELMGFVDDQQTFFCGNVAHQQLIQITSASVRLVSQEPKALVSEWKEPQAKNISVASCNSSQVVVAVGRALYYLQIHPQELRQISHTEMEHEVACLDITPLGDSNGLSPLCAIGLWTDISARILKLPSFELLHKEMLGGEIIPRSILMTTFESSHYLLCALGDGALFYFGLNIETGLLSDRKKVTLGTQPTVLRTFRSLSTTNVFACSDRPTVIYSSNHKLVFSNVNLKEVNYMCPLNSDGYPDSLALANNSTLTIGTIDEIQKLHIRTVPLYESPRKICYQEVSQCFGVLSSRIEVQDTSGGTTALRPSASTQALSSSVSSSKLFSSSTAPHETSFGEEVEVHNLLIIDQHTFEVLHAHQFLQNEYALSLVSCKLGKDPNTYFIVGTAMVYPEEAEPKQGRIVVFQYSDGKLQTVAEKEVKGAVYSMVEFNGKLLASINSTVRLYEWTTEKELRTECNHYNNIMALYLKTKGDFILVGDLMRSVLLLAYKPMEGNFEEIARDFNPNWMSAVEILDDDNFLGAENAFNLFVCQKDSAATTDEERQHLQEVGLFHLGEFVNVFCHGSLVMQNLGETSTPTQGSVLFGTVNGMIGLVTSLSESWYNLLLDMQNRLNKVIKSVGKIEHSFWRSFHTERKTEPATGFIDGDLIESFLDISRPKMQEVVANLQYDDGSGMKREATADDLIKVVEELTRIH

Row | Compound | DC50 [nM] | Y
1 | O=C1CCC(N2Cc3cc(C(=O)N[C@H](c4ncc(Cl)cc4Cl)C(F)(F)F)ccc3C2=O)C(=O)N1 (stereo partly drawn) [Example 184, N-((R)-1-(3,5-dichloropyridin-2-yl)-2,2,2-trifluoroethyl)-2-(2,6-dioxopiperidin-3-yl)-1-oxoisoindoline-5-carboxamide] | < 100 | * (a Y value (shown as *) of 0<Y≤20%)
2 | O=C1CCC(N2Cc3cc(C(=O)N[C@H](c4cc(F)ccc4Cl)C(F)(F)F)ccc3C2=O)C(=O)N1 (stereo partly drawn) [Example 160, N-((R)-1-(2-chloro-5-fluorophenyl)-2,2,2-trifluoroethyl)-2-(2,6-dioxopiperidin-3-yl)-1-oxoisoindoline-5-carboxamide] | < 100 | * (a Y value (shown as *) of 0<Y≤20%)
3 | O=C1CCC(N2Cc3cc(C(=O)N[C@H](c4ncc(F)cc4Cl)C(F)(F)F)ccc3C2=O)C(=O)N1 (stereo partly drawn) [Example 175, N-((R)-1-(3-chloro-5-fluoropyridin-2-yl)-2,2,2-trifluoroethyl)-2-(2,6-dioxopiperidin-3-yl)-1-oxoisoindoline-5-carboxamide] | < 100 | * (a Y value (shown as *) of 0<Y≤20%)
4 | O=C1CCC(N2Cc3c(ccc(C(=O)N[C@H](c4ccc(F)cc4Cl)C(F)(F)F)c3F)C2=O)C(=O)N1 (stereo partly drawn) [Example 145, N-((R)-1-(2-chloro-4-fluorophenyl)-2,2,2-trifluoroethyl)-2-(2,6-dioxopiperidin-3-yl)-4-fluoro-1-oxoisoindoline-5-carboxamide] | < 100 | * (a Y value (shown as *) of 0<Y≤20%)
5 | Cn1cc([C@@H](NC(=O)c2ccc3c(c2)CN(C2CCC(=O)NC2=O)C3=O)C(F)(F)F)cn1 (stereo partly drawn) [Example 70, 2-(2,6-dioxopiperidin-3-yl)-1-oxo-N-((R)-2,2,2-trifluoro-1-(1-methyl-1H-pyrazol-4-yl)ethyl)isoindoline-5-carboxamide] | 100 to 500 | ** (a Y value (shown as**) of 20%<Y≤35%)
6 | O=C1CCC(N2Cc3cc(C(=O)N[C@H](c4ncccc4C(F)(F)F)C(F)(F)F)ccc3C2=O)C(=O)N1 (stereo partly drawn) [Example 116, 2-(2,6-dioxopiperidin-3-yl)-1-oxo-N-((R)-2,2,2-trifluoro-1-(3-(trifluoromethyl)pyridin-2-yl)ethyl)isoindoline-5-carboxamide] | 100 to 500 | ** (a Y value (shown as**) of 20%<Y≤35%)
7 | O=C1CCC(N2Cc3cc(C(=O)N[C@H](C4CCC(F)(F)CC4)C(F)(F)F)ccc3C2=O)C(=O)N1 (stereo partly drawn) [Example 45, N-((R)-1-(4,4-difluorocyclohexyl)-2,2,2-trifluoroethyl)-2-(2,6-dioxopiperidin-3-yl)-1-oxoisoindoline-5-carboxamide] | 100 to 500 | * (a Y value (shown as *) of 0<Y≤20%)
8 | O=C1CCC(N2Cc3cc(C(=O)N[C@H](c4cccc(N5CCOCC5)c4)C(F)(F)F)ccc3C2=O)C(=O)N1 (stereo partly drawn) [Example 201, 2-(2,6-dioxopiperidin-3-yl)-1-oxo-N-((R)-2,2,2-trifluoro-1-(3-morpholinophenyl)ethyl)isoindoline-5-carboxamide] | < 100 | * (a Y value (shown as *) of 0<Y≤20%)
9 | O=C1CCC(N2Cc3cc(C(=O)N[C@H]([C@H]4CC[C@H](O)CC4)C(F)(F)F)ccc3C2=O)C(=O)N1 (stereo partly drawn) [Example 56, 2-(2,6-dioxopiperidin-3-yl)-1-oxo-N-((R)-2,2,2-trifluoro-1-((1r,4R)-4-hydroxycyclohexyl)ethyl)isoindoline-5-carboxamide] | 100 to 500 | * (a Y value (shown as *) of 0<Y≤20%)
10 | C[C@H](NC(=O)c1ccc2c(c1)CN(C1CCC(=O)NC1=O)C2=O)c1cccc(Cl)c1 (stereo partly drawn) [Example 15] | < 100 | * (a Y value (shown as *) of 0<Y≤20%)
11 | O=C1CCC(N2Cc3cc(C(=O)N[C@H](c4ccccc4Cl)C(F)(F)F)ccc3C2=O)C(=O)N1 (stereo partly drawn) [Example 50, N-((R)-1-(2-chlorophenyl)-2,2,2-trifluoroethyl)-2-(2,6-dioxopiperidin-3-yl)-1-oxoisoindoline-5-carboxamide] | < 100 | * (a Y value (shown as *) of 0<Y≤20%)
12 | O=C1CCC(N2Cc3cc(C(=O)N[C@H](c4c(F)cc(F)cc4Cl)C(F)(F)F)ccc3C2=O)C(=O)N1 (stereo partly drawn) [Example 203, N-((R)-1-(2-chloro-4,6-difluorophenyl)-2,2,2-trifluoroethyl)-2-(2,6-dioxopiperidin-3-yl)-1-oxoisoindoline-5-carboxamide] | < 100 | * (a Y value (shown as *) of 0<Y≤20%)
13 | CC(C)[C@H](C)NC(=O)c1ccc2c(c1)CN(C1CCC(=O)NC1=O)C2=O (stereo partly drawn) [Example 28] | 100 to 500 | ** (a Y value (shown as**) of 20%<Y≤35%)
14 | CC1(C)CCC([C@@H](NC(=O)c2ccc3c(c2)CN(C2CCC(=O)NC2=O)C3=O)C(F)(F)F)CC1 (stereo partly drawn) [Example 46, N-((R)-1-(4,4-dimethylcyclohexyl)-2,2,2-trifluoroethyl)-2-(2,6-dioxopiperidin-3-yl)-1-oxoisoindoline-5-carboxamide] | 100 to 500 | * (a Y value (shown as *) of 0<Y≤20%)
15 | O=C1CCC(N2Cc3c(ccc(C(=O)N[C@H](c4ccc(Cl)cc4)C(F)(F)F)c3F)C2=O)C(=O)N1 (stereo partly drawn) [Example 93, N-((R)-1-(4-chlorophenyl)-2,2,2-trifluoroethyl)-2-(2,6-dioxopiperidin-3-yl)-4-fluoro-1-oxoisoindoline-5-carboxamide] | < 100 | * (a Y value (shown as *) of 0<Y≤20%)
16 | Cc1ccccc1[C@@H](NC(=O)c1ccc2c(c1F)CN(C1CCC(=O)NC1=O)C2=O)C(F)(F)F (stereo partly drawn) [Example 128, 2-(2,6-dioxopiperidin-3-yl)-4-fluoro-1-oxo-N-((R)-2,2,2-trifluoro-1-o-tolylethyl)isoindoline-5-carboxamide] | < 100 | * (a Y value (shown as *) of 0<Y≤20%)
17 | O=C1CCC(N2Cc3cc(C(=O)N[C@H](c4ccccc4Oc4ccccc4)C(F)(F)F)ccc3C2=O)C(=O)N1 (stereo partly drawn) [Example 159, 2-(2,6-dioxopiperidin-3-yl)-1-oxo-N-((R)-2,2,2-trifluoro-1-(2-phenoxyphenyl)ethyl)isoindoline-5-carboxamide] | < 100 | * (a Y value (shown as *) of 0<Y≤20%)
18 | CN(C)Cc1ccc([C@@H](NC(=O)c2ccc3c(c2)CN(C2CCC(=O)NC2=O)C3=O)C(F)(F)F)cc1 (stereo partly drawn) [Example 141, N-((R)-1-(4-((dimethylamino)methyl)phenyl)-2,2,2-trifluoroethyl)-2-(2,6-dioxopiperidin-3-yl)-1-oxoisoindoline-5-carboxamide] | < 100 | * (a Y value (shown as *) of 0<Y≤20%)
19 | CC(C)([C@@H](NC(=O)c1ccc2c(c1)CN(C1CCC(=O)NC1=O)C2=O)C(F)(F)F)C(F)(F)F (stereo partly drawn) [Example 68, 2-(2,6-dioxopiperidin-3-yl)-N-((R)-1,1,1,4,4,4-hexafluoro-3,3-dimethylbutan-2-yl)-1-oxoisoindoline-5-carboxamide] | 100 to 500 | ** (a Y value (shown as**) of 20%<Y≤35%)
20 | COc1ccccc1[C@@H](NC(=O)c1ccc2c(c1)CN(C1CCC(=O)NC1=O)C2=O)C(F)(F)F (stereo partly drawn) [Example 38, 2-(2,6-dioxopiperidin-3-yl)-1-oxo-N-((R)-2,2,2-trifluoro-1-(2-methoxyphenyl)ethyl)isoindoline-5-carboxamide] | < 100 | * (a Y value (shown as *) of 0<Y≤20%)
21 | C[C@H](NC(=O)c1ccc2c(c1)CN(C1CCC(=O)NC1=O)C2=O)c1ccc(F)cc1F (stereo partly drawn) [Example 51, N-((S)-1-(2,4-difluorophenyl)ethyl)-2-(2,6-dioxopiperidin-3-yl)-1-oxoisoindoline-5-carboxamide] | < 100 | * (a Y value (shown as *) of 0<Y≤20%)
22 | CC(C)[C@H](NC(=O)c1ccc2c(c1)CN(C1CCC(=O)NC1=O)C2=O)c1ccc(F)cc1 (stereo partly drawn) [Example 170, 2-(2,6-dioxopiperidin-3-yl)-N-((S)-1-(4-fluorophenyl)-2-methylpropyl)-1-oxoisoindoline-5-carboxamide] | < 100 | * (a Y value (shown as *) of 0<Y≤20%)
23 | COc1cccnc1[C@@H](NC(=O)c1ccc2c(c1)CN(C1CCC(=O)NC1=O)C2=O)C(F)(F)F (stereo partly drawn) [Example 200, 2-(2,6-dioxopiperidin-3-yl)-1-oxo-N-((R)-2,2,2-trifluoro-1-(3-methoxypyridin-2-yl)ethyl)isoindoline-5-carboxamide] | < 100 | * (a Y value (shown as *) of 0<Y≤20%)
24 | O=C1CCC(N2Cc3c(ccc(C(=O)N[C@H](c4ncc(Cl)cc4Cl)C(F)(F)F)c3F)C2=O)C(=O)N1 (stereo partly drawn) [Example 178, N-((R)-1-(3,5-dichloropyridin-2-yl)-2,2,2-trifluoroethyl)-2-(2,6-dioxopiperidin-3-yl)-4-fluoro-1-oxoisoindoline-5-carboxamide] | < 100 | * (a Y value (shown as *) of 0<Y≤20%)
25 | O=C1CCC(N2Cc3cc(C(=O)N[C@H](c4cccc(OC5CC5)c4)C(F)(F)F)ccc3C2=O)C(=O)N1 (stereo partly drawn) [Example 122, N-((R)-1-(3-cyclopropoxyphenyl)-2,2,2-trifluoroethyl)-2-(2,6-dioxopiperidin-3-yl)-1-oxoisoindoline-5-carboxamide] | < 100 | * (a Y value (shown as *) of 0<Y≤20%)
26 | O=C1CCC(N2Cc3cc(C(=O)N[C@H](c4ccccc4CN4CCOCC4)C(F)(F)F)ccc3C2=O)C(=O)N1 (stereo partly drawn) [Example 155, 2-(2,6-dioxopiperidin-3-yl)-1-oxo-N-((R)-2,2,2-trifluoro-1-(2-(morpholinomethyl)phenyl)ethyl)isoindoline-5-carboxamide] | < 100 | * (a Y value (shown as *) of 0<Y≤20%)
27 | O=C1CCC(N2Cc3cc(C(=O)N[C@H]([C@H]4CC[C@@H](O)CC4)C(F)(F)F)ccc3C2=O)C(=O)N1 (stereo partly drawn) [Example 62, 2-(2,6-dioxopiperidin-3-yl)-1-oxo-N-((R)-2,2,2-trifluoro-1-((1s,4S)-4-hydroxycyclohexyl)ethyl)isoindoline-5-carboxamide] | 100 to 500 | * (a Y value (shown as *) of 0<Y≤20%)
